Test results taken from patent US11168059B2, “Amino sulfonyl compounds” (CV6 Therapeutics (NI) Limited, priority 2016, dated 2021).

system: colorectal (HCT116), breast (MCF-7) and non-small cell lung (H1299, A549, H358 and H460) cell line models; assay: Colony forming assay; format: cell-based; settings: FUdR between 0.5 and 2.5 μmol/L; all cell lines evaluated
Description: Colony forming assay showing the ability of colon (SW620, HCT116), non-small cell lung (A549, H460, H1299 and H358) and breast (MCF7) cancer cells to survive and proliferate following transient 24 hour exposure to test compounds, FUdR and combinations are determined. Specifically, cells are seeded at densities between 50 and 100 cells/well in 24-well plates. Twenty-four hours later, cells are treated with increasing concentrations of a rtest compound, a fixed dose of FUdR and combinations of these. After 24 hours, drug is removed, cells are rinsed and allowed to outgrow for 10-14 days. At the conclusion of the outgrowth, cells are fixed in 60% ice cold methanol and stained with 0.1% crystal violet, scanned and counted. Data is presented as percentage of untreated controls (mean±SD). Fraction affected and combination indexes are calculated according to the method of Chou and Talalay where <1 is indicative of a synergistic drug interaction.
Colony forming assays are performed to evaluate the effectiveness of test compounds alone and in combination with the fluoropyrimidine thymidylate synthase (TS) inhibitor fluorodeoxyuridine (FUdR) at reducing cancer cell viability in colorectal (HCT116), breast (MCF-7) and non-small cell lung (H1299, A549, H358 and H460) cell line models. […]

SMILES | colonies formed
O=c1[nH]c(=O)n([C@H]2C[C@H](O)[C@@H](CO)O2)cc1F [FUdR, fluorodeoxyuridine] | dose-dependent decreases in colonies formed

biological target: T1, recombinant human deoxyuridine nucleotidohydrolase (dUTPase) (Homo sapiens, UniProt P33316); assay: dUTPase inhibition, fluorescence-based DNA polymerase assay; format: biochemical; settings: not given
T1 construct: made in house
T1 sequence (P33316 1-164 isoform P33316-2): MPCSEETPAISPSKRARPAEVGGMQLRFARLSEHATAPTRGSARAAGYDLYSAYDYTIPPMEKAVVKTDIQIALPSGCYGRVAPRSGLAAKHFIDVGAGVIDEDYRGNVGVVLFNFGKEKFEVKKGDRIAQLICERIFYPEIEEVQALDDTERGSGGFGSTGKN
Description: Recombinant human deoxyuridine nucleotidohydrolase (dUTPase) is expressed and purified as described in Ladner R D, Carr S A, Huddleston M J, McNulty D E, Caradonna S J. J Biol Chem. 1996 Mar. 29; 271(13):7752-7. All drugs stocks are aliquoted and diluted as appropriate prior to use. The oligonucelotide primer, templates and fluorophore- and quencher-labeled detection probes are synthesized by Integrated DNA Technologies (Coralville, Iowa), subjected to polyacrylamide gel electrophoresis purification and reconstituted in Omnipur sterile nuclease-free water (EMD Chemicals USA, Gibbstown N.J.) at a stock concentration of 100 μmol/L. The two non-emissive (dark) quenching molecules incorporated into the detection probes include the Iowa black fluorescein quencher (IBFQ; absorption max 531 nm) and ZEN (non-abbreviation; absorption max 532 nm). The fluorescent label utilized is 6-FAM (5′-carboxyfluorescein; excitation max.=494 nm, emission max.=520 nm). Probes are further diluted to a working stock of 10 μmol/L and aliquoted to avoid repeated freeze/thaw cycles. AmpliTaq Gold DNA Polymerase, GeneAmp 10×PCR Buffer 2, MgCl2 and MicroAmp Optical 96-well Reaction Plates are purchased from Applied Biosystems (Carlsbad, Calif.). dNTPs are purchased individually at stock concentrations of 100 mmol/L from New England Biolabs at HPLC-certified >99% purity (Ipswich, Mass.).
Reaction mixtures contained primer, probe and template at an equimolar final concentration of 0.4 μmol/L. Magnesium chloride (MgCl2) is included at a final concentration of 2 mmol/L. Non-limiting dNTPs are included in the reaction mix in excess at a final concentration of 100 μmol/L (dUTP/dTTP is excluded). AmpliTaq Gold DNA polymerase is added at 0.875 U/reaction, 2.5 μl of 10×PCR buffer 2 added and nuclease-free ddH2O added to a final reaction volume of 25 μl. For dUTP inhibition analysis, the volume of ddH2O is further modified to accommodate an additional 1 μl of dUTPase (10 ng/μl) and 1 μl of inhibitor or DMSO control. Thermal profiling and fluorescence detection is performed using a customized thermal program on board a Roche Lightcycler LC480 Instrument II. For analysis of dNTPs, the thermal profile consisted of an 8 min 37° C. step followed by a 10 min 95° C. step to ‘hot-start’ the Taq polymerase and a primer extension time of up to 30 min at 60° C. Raw fluorescence spectra for 6-FAM is measured at specified time intervals to follow assay progression on board a Roche LightCycler 480 Software Version 1.5 and exported and analyzed in Microsoft Excel (Microsoft, Redmond Wash.) and Prism (GraphPad Software, La Jolla Calif.). Fluorescence values for blank reactions (limiting dNTP omitted) are subtracted to give normalized fluorescence units (NFU) to account for background fluorescence.
Test compounds are screened in a fluorescence-based assay. The assay employs a DNA polymerase-based approach utilizing an oligonucleotide template with 3 distinct regions: a 3′ primer binding region, a mid-template dUTP/thymidine triphosphate (TTP) detection region and a 5′ 6-[…] (FAM)-labeled probe binding region that incorporates a black hole quenching moiety. During the reaction, the probe and primer hybridize to the oligonucleotide template to form the template:primer:probe complex. When Taq polymerase binds to the primer in the TPP complex and dUTP is present, successful extension of the nascent strand occurs and the inherent 5′ to 3′ exonuclease activity of Taq polymerase cleaves and displaces the 6-FAM-labeled probe in a 5′ to 3′ direction, releasing the 6-FAM fluorophore from its proximity to the […]. This displacement effectively disrupts the Forster resonance energy transfer (FRET) and the resulting fluorescence detected upon excitation is directly proportional to the amount of the dUTP available in the assay for incorporation. […]

SMILES | IC50 [nM]
CC(C)(NS(=O)(=O)c1cccc(OC2CCCC2)c1)c1ccc(CN2CC(=O)NC2=O)cc1 [Example 41, 3-(cyclopentyloxy)-N-(2-(4-((2,4-dioxoimidazolidin-1-yl)methyl)phenyl)propan-2-yl)benzenesulfonamide] | 300
O=C1CN(Cc2ccc(CNS(=O)(=O)c3cccc(OC4CCCC4)c3)cc2)C(=O)N1 [Example 40, 3-(cyclopentyloxy)-N-(4-((2,4-dioxoimidazolidin-1-yl)methyl)benzyl)benzenesulfonamide] | 1400

same assay, conditions: mean over three concentrations, typically 100, 50 and 25 μmol/L, relative to in-run positive control

SMILES | % relative inhibition vs. positive control [%]
O=C1CN(C/C=C/CCCNS(=O)(=O)c2cccc(OCC3CC3)c2)C(=O)N1 [Compound 44a, (E)-3-(cyclopropylmethoxy)-N-(6-(2,4-dioxoimidazolidin-1-yl)hex-4-en-1-yl)benzenesulfonamide] | 159
O=C1CN(CCCCCCNS(=O)(=O)c2ccc(F)c(OCC3CC3)c2)C(=O)N1 [Compound 44b, 3-(cyclopropylmethoxy)-N-(6-(2,4-dioxoimidazolidin-1-yl)hexyl)-4-fluorobenzenesulfonamide] | 168
CC(C)(NS(=O)(=O)c1cccc(OC2CCCC2)c1)c1ccc(CN2CC(=O)NC2=O)cc1 [Example 41, 3-(cyclopentyloxy)-N-(2-(4-((2,4-dioxoimidazolidin-1-yl)methyl)phenyl)propan-2-yl)benzenesulfonamide] | 249
O=C1CCN(CCCOCCNS(=O)(=O)c2cccc(OCC3CC3)c2)C(=O)N1 [Example 48, 3-(cyclopropylmethoxy)-N-(2-(3-(2,4-dioxotetrahydropyrimidin-1(2H)-yl)propoxy)ethyl)benzenesulfonamide] | 82
CC(C)COc1cc(S(=O)(=O)NCCCCCCN2CCC(=O)NC2=O)ccc1F [Compound 50b, N-(6-(2,4-dioxotetrahydropyrimidin-1(2H)-yl)hexyl)-4-fluoro-3-isobutoxybenzenesulfonamide] | 141
O=C1CN(CCOCCCNS(=O)(=O)c2cccc(OCC3CC3)c2)C(=O)N1 [Example 42, 3-(cyclopropylmethoxy)-N-(3-(2-(2,4-dioxoimidazolidin-1-yl)ethoxy)propyl)benzenesulfonamide] | 136
CC(C)COc1cc(S(=O)(=O)NCCCCCCN2CC(=O)NC2=O)ccc1F [Compound 45b, N-(6-(2,4-dioxoimidazolidin-1-yl)hexyl)-4-fluoro-3-isobutoxybenzenesulfonamide] | 151
CC(C)COc1cc(S(=O)(=O)NCCC/C=C/CN2CC(=O)NC2=O)ccc1F [Compound 45a, (E)-N-(6-(2,4-dioxoimidazolidin-1-yl)hex-4-en-1-yl)-4-fluoro-3-isobutoxybenzenesulfonamide] | 178
O=C1CN(Cc2ccc(CNS(=O)(=O)c3cccc(OC4CCCC4)c3)cc2)C(=O)N1 [Example 40, 3-(cyclopentyloxy)-N-(4-((2,4-dioxoimidazolidin-1-yl)methyl)benzyl)benzenesulfonamide] | 53
O=C1CCN(CCOCCCNS(=O)(=O)c2cccc(OCC3CC3)c2)C(=O)N1 [Example 47, 3-(cyclopropylmethoxy)-N-(3-(2-(2,4-dioxotetrahydropyrimidin-1(2H)-yl)ethoxy)propyl) benzenesulfonamide] | 8
CC(C)COc1cc(S(=O)(=O)NCCC/C=C/CN2CCC(=O)NC2=O)ccc1F [Compound 50a, (E)-N-(6-(2,4-dioxotetrahydropyrimidin-1(2H)-yl)hex-4-en-1-yl)-4-fluoro-3-isobutoxybenzenesulfonamide] | 156
O=C1CCN(C/C=C/CCCNS(=O)(=O)c2ccc(F)c(OCC3CC3)c2)C(=O)N1 [Compound 49b, (E)-3-(cyclopropylmethoxy)-N-(6-(2,4-dioxotetrahydropyrimidin-1(2H)-yl)hex-4-en-1-yl)-4-fluorobenzenesulfonamide] | 144
O=C1CCN(C/C=C/CCCNS(=O)(=O)c2ccc(F)c(OCC3CC3)c2)C(=O)N1 [Compound 49a, (E)-3-(cyclopropylmethoxy)-N-(6-(2,4-dioxotetrahydropyrimidin-1(2H)-yl)hex-4-en-1-yl)-4-fluorobenzenesulfonamide] | 151

system: colorectal (HCT 116 and SW620) cell line models; assay: MTS growth inhibition assay; format: cell-based; settings: 5-FU between 0 and 100 μmol/L; both colorectal cancer cell lines
Description: The Cell Titer AQueous MTS assay (Promega) is carried out according to the manufacturers guidelines. […] The combination effect is determined by the combination index (CI) method utilizing Calcusyn software (Biosoft, Ferguson, Mo.). […] CI values <1, synergism; 1-1.2, additive and >1.2, antagonism.
Test compounds are evaluated for their antitumor activity in colorectal cancer cells using the MTS growth inhibition assay. HCT116 and SW620 cells are exposed to increasing concentrations of each agent for 72 hours and growth inhibition is directly compared to vehicle-treated controls. The NSCLC cell lines A549 and H1299 are exposed to increasing concentrations of each agent for 72 hours and growth inhibition is directly compared to vehicle-treated controls.
Simultaneous treatment with increasing concentrations of 5-FU and a test compound at fixed concentrations of 25 μmol/L is determined.

SMILES | growth inhibition
O=c1[nH]cc(F)c(=O)[nH]1 [Example 5-FU, 5-fluorouracil] | dose-dependent increases in growth inhibition
